According to ChEMBL document CHEMBL1201862, “PubChem BioAssay data set” (2004):
Active and inactive are the calls of the source.

What was measured:
Fatty acid synthase [1] = molecular target: T1, Fatty acid synthase (Homo sapiens, UniProt P49327); experiment: inhibition of human FAS-TE enzyme activity – biochemical, endpoint fluorescence intensity, uHTS hits, dose response (AID 624327); assay type: functional;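 note: fluorescence from hydrolysis of an O-methyl fluorescein acyl ester substrate by the enzyme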
[2] = molecular target: T2, Short transient receptor potential channel 4 (Mus musculus, UniProt Q9QUQ5); experiment: block of DAMGO-driven TRPC4 calcium entry – cell-based, HEK293 TRPC4/mu-opioid, Fluo-4 calcium, dose response (AID 434942); assay type: functional;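 note: potency of inhibitors blocking the TRPC4 calcium response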
T2 sequence (Q9QUQ5 whole entry): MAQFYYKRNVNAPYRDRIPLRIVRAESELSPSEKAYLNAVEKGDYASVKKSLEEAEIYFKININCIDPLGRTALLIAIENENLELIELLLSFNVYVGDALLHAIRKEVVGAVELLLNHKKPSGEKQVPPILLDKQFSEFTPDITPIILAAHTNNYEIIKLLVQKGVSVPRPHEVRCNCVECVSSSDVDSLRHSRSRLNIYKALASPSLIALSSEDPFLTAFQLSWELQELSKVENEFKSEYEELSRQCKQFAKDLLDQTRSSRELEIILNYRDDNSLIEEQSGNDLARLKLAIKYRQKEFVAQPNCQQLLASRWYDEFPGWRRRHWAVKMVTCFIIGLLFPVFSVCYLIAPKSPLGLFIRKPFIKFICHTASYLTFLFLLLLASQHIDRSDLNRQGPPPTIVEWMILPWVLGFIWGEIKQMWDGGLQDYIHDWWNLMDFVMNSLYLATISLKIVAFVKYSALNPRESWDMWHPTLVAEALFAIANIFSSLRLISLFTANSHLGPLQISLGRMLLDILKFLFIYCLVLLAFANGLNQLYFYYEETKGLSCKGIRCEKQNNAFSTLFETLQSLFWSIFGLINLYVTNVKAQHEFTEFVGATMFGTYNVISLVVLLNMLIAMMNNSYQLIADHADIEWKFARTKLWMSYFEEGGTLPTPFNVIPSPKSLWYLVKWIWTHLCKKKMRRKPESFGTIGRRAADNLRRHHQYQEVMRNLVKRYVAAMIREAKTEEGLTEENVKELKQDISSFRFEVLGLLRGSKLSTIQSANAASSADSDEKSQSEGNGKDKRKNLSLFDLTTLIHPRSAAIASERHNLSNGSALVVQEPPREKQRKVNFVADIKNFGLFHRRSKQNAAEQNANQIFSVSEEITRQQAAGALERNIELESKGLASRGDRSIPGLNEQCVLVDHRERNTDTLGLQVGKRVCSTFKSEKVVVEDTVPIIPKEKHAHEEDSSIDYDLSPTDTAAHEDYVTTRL

Fatty acid synthase [3] = molecular target: T1, Fatty acid synthase; experiment: inhibition of human FAS-TE enzyme activity – biochemical, kinetic fluorescence intensity, dose response (AID 624326); assay type: functional;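 note: rate of fluorescence rise from hydrolysis of a fluorogenic O-methyl fluorescein ester substrate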
HEK293 [4] = experiment: cells; assay type: functional, cell-based; details: Homo sapiens
[5] = molecular target: Nucleotide-binding oligomerization domain-containing protein 2 (Homo sapiens, UniProt Q9HC29); experiment: inhibition of NOD2-driven NF-kB reporter – cell-based, luminescence, uHTS, HEK293 (AID 1566); assay type: functional
HEK293 [6] = experiment: inhibition of NOD1-driven NF-kB reporter – cell-based, luminescence, uHTS, primary screen (AID 1578); assay type: functional; details: Homo sapiens
HEK293 [7] = experiment: cells; assay type: functional, cell-based; details: Homo sapiens; remark: listed apart in the source
HEK293 [8] = experiment: NOD2 signaling inhibitors in MDP-stimulated cells, cell-based, uHTS, luminescence (AID 2001); assay type: functional; details: Homo sapiens
HEK293 [9] = experiment: cells; assay type: functional, cell-based; details: Homo sapiens; remark: listed apart in the source
[10] = molecular target: T3, Replicative DNA helicase DnaB (Mycobacterium tuberculosis, UniProt P9WMR3); experiment: DnaB intein splicing inhibitors, dose response, biochemical, cell-free fluorescence (AID 449749); assay type: functional
T3 sequence (P9WMR3 whole entry): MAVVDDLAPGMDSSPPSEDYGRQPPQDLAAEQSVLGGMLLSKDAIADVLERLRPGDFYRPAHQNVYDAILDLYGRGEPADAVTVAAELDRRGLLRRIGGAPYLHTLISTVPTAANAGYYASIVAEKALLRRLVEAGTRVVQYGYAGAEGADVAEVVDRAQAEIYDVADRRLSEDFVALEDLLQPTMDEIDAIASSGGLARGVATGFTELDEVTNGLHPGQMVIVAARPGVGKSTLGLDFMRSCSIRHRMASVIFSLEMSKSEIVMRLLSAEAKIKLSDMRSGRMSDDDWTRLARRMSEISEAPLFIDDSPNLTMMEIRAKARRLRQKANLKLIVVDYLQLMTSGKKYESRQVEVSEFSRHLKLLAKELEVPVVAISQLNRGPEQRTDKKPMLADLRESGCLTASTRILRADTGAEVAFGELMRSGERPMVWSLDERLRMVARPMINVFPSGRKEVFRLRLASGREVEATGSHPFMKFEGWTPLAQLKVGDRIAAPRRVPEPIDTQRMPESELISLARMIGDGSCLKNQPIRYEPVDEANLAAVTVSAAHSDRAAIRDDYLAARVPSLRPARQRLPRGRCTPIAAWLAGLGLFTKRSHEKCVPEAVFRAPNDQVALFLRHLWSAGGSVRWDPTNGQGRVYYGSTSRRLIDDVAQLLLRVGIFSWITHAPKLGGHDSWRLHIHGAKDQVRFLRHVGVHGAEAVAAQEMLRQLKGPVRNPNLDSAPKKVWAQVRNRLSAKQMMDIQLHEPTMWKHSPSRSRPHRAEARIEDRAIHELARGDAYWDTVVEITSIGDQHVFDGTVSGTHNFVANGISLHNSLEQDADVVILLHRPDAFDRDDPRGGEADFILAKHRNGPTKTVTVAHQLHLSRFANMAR

[11] = molecular target: Induced myeloid leukemia cell differentiation protein Mcl-1 (Homo sapiens, UniProt Q07820); assay type: functional
[12] = molecular target: T4, Voltage-gated N-type calcium channel alpha-1B subunit/Amyloid beta A4 precursor protein-binding family A member 1 (Homo sapiens, UniProt Q00975+Q02410); experiment: disruptors of Mint-PDZ/N-type channel peptide interaction – biochemical, HTRF, SAR follow-up (AID 2489); assay type: functional
[13] = NIH-3T3 fibroblast cytotoxicity, dose response, cytotoxicity control, cell-based, fluorescence, Alamar Blue, secondary assay (AID 2327); assay type: functional;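 note: NIH-3T3 mouse fibroblasts cultured with fluconazole at 8 µg/mL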
[14] = molecular target: T4, Voltage-gated N-type calcium channel alpha-1B subunit/Amyloid beta A4 precursor protein-binding family A member 1; experiment: disruptors of Mint-PDZ/N-type channel peptide interaction – biochemical, HTRF, set 2, SAR follow-up (AID 434980); assay type: functional
[15] = molecular target: T4, Voltage-gated N-type calcium channel alpha-1B subunit/Amyloid beta A4 precursor protein-binding family A member 1; assay type: protein assay
[16] = molecular target: T4, Voltage-gated N-type calcium channel alpha-1B subunit/Amyloid beta A4 precursor protein-binding family A member 1; assay type: protein assay; remark: listed apart in the source
[17] = fluconazole-exposed Candida albicans growth modulators – fluorescence, retest, confirmation (AID 2467); assay type: functional, cell-based
Protein RecA = molecular target: T5, Protein RecA (Mycobacterium tuberculosis, UniProt P9WHJ3); experiment: Fluorescence Cell-Free Homogeneous Dose Retest to Identify Inhibitors of RecA-Intein Splicing Activity. [Related pubchem assays (depositor defined):AID2097, AID2223, AID489010, AID492950]; assay type: functional
T5 sequence (P9WHJ3 whole entry): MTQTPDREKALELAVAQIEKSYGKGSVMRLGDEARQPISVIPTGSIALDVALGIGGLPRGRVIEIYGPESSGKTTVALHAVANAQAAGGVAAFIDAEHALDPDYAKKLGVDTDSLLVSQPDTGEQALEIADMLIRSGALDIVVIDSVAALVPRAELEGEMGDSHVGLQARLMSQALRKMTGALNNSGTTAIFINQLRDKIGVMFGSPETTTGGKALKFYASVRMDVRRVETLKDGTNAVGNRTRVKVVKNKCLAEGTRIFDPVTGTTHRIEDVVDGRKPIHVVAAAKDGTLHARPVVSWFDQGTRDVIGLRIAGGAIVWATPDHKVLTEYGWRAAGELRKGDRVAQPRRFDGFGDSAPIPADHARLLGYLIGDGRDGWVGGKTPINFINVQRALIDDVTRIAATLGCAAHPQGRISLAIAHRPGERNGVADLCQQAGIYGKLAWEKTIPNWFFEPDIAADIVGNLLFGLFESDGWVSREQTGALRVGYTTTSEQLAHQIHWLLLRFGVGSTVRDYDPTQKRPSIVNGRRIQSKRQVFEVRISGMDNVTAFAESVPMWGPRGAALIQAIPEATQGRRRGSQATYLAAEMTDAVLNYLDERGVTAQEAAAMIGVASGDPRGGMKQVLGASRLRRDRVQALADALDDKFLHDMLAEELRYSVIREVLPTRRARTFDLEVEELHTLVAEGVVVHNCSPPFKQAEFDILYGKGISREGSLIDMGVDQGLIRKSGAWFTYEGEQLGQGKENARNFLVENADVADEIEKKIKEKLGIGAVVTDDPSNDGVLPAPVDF

[18] = molecular target: DNA dC->dU-editing enzyme APOBEC-3G (Homo sapiens, UniProt Q9HC16); experiment: Dose Response confirmation of small molecule APOBEC3G DNA Deaminase Inhibitors via a fluorescence-based single-stranded DNA deaminase assay. [Related pubchem assays (depositor defined):AID493012, AID493028]; assay type: functional
[19] = molecular target: Neurotensin receptor type 1 (Homo sapiens, UniProt P30989); assay type: functional;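 note: Image-based confirmatory dose-response assay measuring agonist activity at NTR1; NTR1-expressing U2OS osteosarcoma cells imaged for beta-arrestin GFP spot formation; agonist potency where compounds increase beta-arrestin recruitment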
[20] = blockers of HIV-1 envelope-mediated cell-cell fusion – cherry-pick, dose response (AID 652057); assay type: functional, cell-based
[21] = viability loss in CEM21 cells – cell-based, CellTiter-Glo luminescence, cherry-picked, cytotoxicity control for viral fusion inhibitor project, dose response (AID 652042); assay type: functional;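 note: potency for signal decrease meaning cytotoxicity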
[22] = HIV-1 AD8 envelope cell-cell fusion blockers – cherry-pick, dose response (AID 652062); assay type: functional, cell-based;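 note: luciferase signal from cell-cell fusion driven by HIV-1 clade B AD8 Env; potency is for inhibitors of fusion seen as a drop in luminescence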
[23] = molecular target: Eukaryotic translation initiation factor 4E (Mus musculus, UniProt P63073); experiment: blockers of eIF4G binding by eIF4E – biochemical, TR-FRET, dose response (AID 855); assay type: functional;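 note: potency for disrupting eIF4E binding to eIF4GI seen as loss of FRET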
[24] = molecular target: Peroxisome proliferator-activated receptor gamma/Nuclear receptor coactivator 3 (Homo sapiens, UniProt P37231); experiment: (§1) TR-FRET dose response biochemical High Throughput Screening assay for agonists of the steroid receptor coactivator 3 (SRC-3) recruitment by the peroxisome proliferator-activated receptor gamma (PPAR gamma): non-selective agonists. [Related pubchem assays: 1301 (Confirmation screen.), 1048 (Primary screen.)]; assay type: functional
[25] = molecular target: Peroxisome proliferator-activated receptor gamma/Nuclear receptor coactivator 1 (Homo sapiens, UniProt P37231); experiment: as §1, with “1 (SRC-1)” for “3 (SRC-3)”, “assays (depositor defined):AID1300, AID1808, AID504735, AID631]” for “assays: 1301 (Confirmation screen.), 1048 (Primary screen.)]”; assay type: protein assay
[26] = molecular target: Peroxisome proliferator-activated receptor gamma/Nuclear receptor coactivator 2 (Homo sapiens, UniProt P37231); experiment: TR-FRET dose response biochemical High Throughput Screening assay for agonists of the steroid receptor coactivator 2 (SRC-2) recruitment by the peroxisome proliferator-activated receptor gamma (PPAR gamma): non-selective agonists. [Related pubchem assays: 1297, 1032 ]; assay type: functional
SUMO E1/E2 = SUMO E1/E2 (Homo sapiens, UniProt P63279+Q9UBE0+Q9UBT2); experiment: SAR analysis of SUMOylation using HTRF in an in-Vitro dose response assay. [Related pubchem assays (depositor defined):AID2006, AID2011, AID2018, AID2069, AID2658]; assay type: functional

T4 sequence (Q00975 whole entry): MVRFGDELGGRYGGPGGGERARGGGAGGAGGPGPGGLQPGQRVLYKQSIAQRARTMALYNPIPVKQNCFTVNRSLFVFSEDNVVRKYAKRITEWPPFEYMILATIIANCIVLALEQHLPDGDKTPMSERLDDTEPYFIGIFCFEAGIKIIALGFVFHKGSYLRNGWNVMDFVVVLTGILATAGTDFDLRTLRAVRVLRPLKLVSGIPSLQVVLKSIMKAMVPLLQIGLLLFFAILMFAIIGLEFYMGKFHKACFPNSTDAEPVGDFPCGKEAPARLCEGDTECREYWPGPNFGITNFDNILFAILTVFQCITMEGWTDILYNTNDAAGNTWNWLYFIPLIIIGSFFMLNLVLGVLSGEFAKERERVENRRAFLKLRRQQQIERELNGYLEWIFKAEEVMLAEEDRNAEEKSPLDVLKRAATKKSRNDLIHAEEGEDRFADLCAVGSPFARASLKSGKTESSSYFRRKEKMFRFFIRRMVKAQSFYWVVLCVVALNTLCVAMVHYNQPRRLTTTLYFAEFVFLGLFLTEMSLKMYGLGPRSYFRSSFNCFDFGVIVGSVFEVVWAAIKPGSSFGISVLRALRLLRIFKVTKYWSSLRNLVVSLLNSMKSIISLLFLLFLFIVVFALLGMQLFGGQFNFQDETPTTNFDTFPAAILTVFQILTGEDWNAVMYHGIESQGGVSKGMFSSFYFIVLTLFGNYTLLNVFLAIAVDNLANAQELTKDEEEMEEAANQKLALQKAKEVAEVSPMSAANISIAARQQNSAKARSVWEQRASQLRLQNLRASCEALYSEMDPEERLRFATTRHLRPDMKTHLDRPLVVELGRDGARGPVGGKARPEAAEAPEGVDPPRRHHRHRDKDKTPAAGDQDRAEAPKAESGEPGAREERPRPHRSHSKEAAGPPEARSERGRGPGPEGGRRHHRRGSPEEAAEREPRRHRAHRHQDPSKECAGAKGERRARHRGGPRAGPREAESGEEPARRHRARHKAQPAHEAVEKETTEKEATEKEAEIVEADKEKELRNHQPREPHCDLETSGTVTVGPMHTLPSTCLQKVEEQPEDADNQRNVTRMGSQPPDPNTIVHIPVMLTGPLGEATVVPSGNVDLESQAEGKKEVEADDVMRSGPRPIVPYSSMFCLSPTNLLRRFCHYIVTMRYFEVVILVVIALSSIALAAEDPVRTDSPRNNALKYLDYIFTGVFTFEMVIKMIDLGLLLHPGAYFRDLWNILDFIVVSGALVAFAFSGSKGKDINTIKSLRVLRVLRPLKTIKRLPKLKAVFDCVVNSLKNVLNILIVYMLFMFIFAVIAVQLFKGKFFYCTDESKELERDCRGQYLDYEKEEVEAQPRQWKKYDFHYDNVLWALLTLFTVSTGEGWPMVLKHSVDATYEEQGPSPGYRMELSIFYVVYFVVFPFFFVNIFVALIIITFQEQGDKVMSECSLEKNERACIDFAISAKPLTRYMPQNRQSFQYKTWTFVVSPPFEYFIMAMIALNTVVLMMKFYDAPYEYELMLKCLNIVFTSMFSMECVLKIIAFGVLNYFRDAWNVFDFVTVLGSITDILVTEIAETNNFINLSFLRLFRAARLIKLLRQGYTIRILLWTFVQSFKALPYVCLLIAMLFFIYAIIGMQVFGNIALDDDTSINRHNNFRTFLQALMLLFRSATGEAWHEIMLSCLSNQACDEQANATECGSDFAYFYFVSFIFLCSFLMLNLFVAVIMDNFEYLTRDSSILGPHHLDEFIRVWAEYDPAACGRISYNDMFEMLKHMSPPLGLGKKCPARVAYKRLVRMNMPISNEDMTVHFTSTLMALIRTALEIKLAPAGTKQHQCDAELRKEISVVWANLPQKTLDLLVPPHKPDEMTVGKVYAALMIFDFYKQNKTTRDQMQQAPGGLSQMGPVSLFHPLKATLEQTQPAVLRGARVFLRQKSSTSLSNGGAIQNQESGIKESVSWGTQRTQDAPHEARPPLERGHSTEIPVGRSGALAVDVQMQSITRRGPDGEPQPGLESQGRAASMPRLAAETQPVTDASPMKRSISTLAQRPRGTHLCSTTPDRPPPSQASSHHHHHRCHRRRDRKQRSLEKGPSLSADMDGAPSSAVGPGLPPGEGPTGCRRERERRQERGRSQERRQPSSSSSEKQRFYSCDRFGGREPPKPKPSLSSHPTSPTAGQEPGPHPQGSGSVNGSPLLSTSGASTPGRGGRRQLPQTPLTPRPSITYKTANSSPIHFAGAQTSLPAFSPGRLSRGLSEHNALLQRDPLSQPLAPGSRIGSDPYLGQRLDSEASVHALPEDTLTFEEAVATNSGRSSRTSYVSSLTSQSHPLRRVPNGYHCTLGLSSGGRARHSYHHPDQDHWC
T4 sequence (Q02410 whole entry): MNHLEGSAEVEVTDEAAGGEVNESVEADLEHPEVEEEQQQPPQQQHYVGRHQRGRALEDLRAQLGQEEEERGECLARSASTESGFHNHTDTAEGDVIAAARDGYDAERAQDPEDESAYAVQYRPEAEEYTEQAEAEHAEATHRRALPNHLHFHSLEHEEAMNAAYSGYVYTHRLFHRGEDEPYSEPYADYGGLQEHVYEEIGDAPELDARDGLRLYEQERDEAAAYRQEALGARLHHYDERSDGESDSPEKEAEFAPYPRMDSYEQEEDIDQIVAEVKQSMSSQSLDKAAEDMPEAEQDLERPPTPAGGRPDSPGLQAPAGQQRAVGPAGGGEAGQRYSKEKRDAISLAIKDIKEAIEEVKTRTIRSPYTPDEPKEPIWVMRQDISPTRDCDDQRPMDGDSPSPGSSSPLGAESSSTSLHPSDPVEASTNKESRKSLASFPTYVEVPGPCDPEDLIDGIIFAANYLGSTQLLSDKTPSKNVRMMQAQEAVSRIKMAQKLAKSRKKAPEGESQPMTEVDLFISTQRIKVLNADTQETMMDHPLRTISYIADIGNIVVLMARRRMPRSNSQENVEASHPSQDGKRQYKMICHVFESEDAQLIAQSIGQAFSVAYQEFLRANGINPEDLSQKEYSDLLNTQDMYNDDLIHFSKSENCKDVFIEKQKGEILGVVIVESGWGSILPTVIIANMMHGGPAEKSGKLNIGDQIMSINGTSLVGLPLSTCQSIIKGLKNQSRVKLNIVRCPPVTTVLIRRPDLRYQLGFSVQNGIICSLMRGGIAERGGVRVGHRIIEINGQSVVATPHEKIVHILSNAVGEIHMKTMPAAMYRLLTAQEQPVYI
Nucleotide-binding oligomerization domain-containing protein 2, sequence (Q9HC29 whole entry, the tested form may be a part): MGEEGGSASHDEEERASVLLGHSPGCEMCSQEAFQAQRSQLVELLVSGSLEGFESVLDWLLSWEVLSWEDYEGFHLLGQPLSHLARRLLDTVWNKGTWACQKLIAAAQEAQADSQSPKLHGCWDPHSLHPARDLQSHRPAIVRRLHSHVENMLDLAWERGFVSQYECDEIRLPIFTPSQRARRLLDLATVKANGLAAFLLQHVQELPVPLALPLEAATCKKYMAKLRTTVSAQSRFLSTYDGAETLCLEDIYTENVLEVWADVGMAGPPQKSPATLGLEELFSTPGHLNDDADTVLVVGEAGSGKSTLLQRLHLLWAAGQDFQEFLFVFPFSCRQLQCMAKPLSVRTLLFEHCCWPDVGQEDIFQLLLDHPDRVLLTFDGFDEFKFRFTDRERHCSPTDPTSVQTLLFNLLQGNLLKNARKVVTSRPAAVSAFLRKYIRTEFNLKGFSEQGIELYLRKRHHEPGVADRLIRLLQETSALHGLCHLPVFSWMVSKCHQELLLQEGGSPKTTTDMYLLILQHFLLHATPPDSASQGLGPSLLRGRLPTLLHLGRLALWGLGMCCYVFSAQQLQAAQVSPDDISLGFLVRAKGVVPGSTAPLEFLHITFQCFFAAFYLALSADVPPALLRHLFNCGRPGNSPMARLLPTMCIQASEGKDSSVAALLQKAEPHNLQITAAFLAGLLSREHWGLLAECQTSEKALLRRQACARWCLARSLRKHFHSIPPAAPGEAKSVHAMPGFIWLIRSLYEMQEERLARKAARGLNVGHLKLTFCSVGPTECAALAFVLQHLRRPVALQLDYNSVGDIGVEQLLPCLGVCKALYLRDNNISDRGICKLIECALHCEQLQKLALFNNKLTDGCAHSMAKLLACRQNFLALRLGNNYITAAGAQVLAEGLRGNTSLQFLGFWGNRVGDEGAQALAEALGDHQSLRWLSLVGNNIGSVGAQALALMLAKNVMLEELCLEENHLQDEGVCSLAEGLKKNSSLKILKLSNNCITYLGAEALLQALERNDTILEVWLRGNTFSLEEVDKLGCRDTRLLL
DNA dC->dU-editing enzyme APOBEC-3G, sequence (Q9HC16 whole entry): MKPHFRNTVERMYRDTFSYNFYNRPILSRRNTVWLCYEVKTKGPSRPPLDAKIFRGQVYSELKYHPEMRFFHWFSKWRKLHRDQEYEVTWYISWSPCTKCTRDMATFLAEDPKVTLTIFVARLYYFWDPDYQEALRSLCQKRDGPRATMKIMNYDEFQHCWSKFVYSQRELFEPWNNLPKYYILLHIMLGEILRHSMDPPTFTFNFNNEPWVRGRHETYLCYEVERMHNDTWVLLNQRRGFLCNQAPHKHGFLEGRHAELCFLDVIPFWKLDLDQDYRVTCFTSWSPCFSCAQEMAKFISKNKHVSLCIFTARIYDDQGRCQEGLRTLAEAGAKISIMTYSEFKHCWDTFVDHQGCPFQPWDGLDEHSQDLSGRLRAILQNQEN
Induced myeloid leukemia cell differentiation protein Mcl-1, sequence (Q07820 whole entry): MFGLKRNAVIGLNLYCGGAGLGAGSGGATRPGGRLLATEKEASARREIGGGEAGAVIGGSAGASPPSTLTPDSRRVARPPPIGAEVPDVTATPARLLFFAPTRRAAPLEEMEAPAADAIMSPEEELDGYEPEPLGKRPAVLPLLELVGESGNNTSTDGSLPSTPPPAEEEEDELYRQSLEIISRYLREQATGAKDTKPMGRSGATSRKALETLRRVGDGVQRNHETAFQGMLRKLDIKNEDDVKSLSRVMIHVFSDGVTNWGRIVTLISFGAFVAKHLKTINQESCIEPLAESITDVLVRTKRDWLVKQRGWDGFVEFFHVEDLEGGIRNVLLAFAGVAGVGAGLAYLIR

O=c1c2ccccc2nc(SCc2ccc([N+](=O)[O-])cc2)n1CCCO
IC50 (Fatty acid synthase [1]): 10.2 µM (active)
EC50 [2]: 0.376 µM (active)
IC50 (Fatty acid synthase [3]): 5.59 µM (active)

COc1ccc(C(Nc2ccccn2)c2c(NC(=O)c3ccco3)sc(C)c2C)cc1OC (configuration not stated)
EC50 [2]: 1.19 µM (active)

CC1CCc2nc(NC(=O)CSc3nc4ccccc4o3)sc2C1 (configuration not stated)
IC50 (HEK293 [4]): 3.36 µM (active)
EC50 [5]: > 20 µM (inactive)
EC50 (HEK293 [6]): 5.78 µM (active)
IC50 (HEK293 [7]): > 20 µM (inactive)
IC50 (HEK293 [8]): 5.28 µM (active)
IC50 (HEK293 [9]): 15.4 µM (active)

CCCc1ccc(/C=C2\C(=O)c3ccccc3C(O)=C2C(=O)OCC)cc1
AC50 [10]: 5.54 µM (active)
IC50 [11]: 2.32 µM (not active)
IC50 [12]: 7.19 µM (active)
EC50 [13]: 56.4 µM (inconclusive)
IC50 [14]: 5.7 µM (active)
IC50 [15]: 9.62 µM (active)
IC50 [16]: 5.12 µM (active)
EC50 [17]: > 38 µM (not active)
EC50 (Protein RecA): 8.95 µM (active)

O=S(=O)(Cc1ccccc1)N=Nc1c(O)[nH]c2ccc(Br)cc12
IC50 [18]: 44.3 µM (active)

CCc1nc2ccccc2c(C(=O)OCC(=O)Nc2cccc(S(=O)(=O)N3CCOCC3)c2)c1C
EC50 [19]: 10.2 µM (active)
AC50 [20]: 44.6 µM (active)
AC50 [21]: 31.5 µM (active)
IC50 (HEK293 [4]): 4.01 µM (active)
EC50 [5]: 12.8 µM (active)
EC50 (HEK293 [6]): 5.64 µM (active)
IC50 (HEK293 [7]): > 20 µM (inactive)
IC50 (HEK293 [8]): 5.81 µM (inactive)
AC50 [22]: 13.9 µM (active)
IC50 (HEK293 [9]): 9.75 µM (active)

O=C(Nc1cccnc1)c1cc2c(ccc3ccccc32)o1
IC50 [23]: > 64 µM (inactive)

O=C(CSc1ncnc2c1oc1ccccc12)N1CCCc2ccccc21
EC50 [24]: > 79.4 µM (not active)
IC50 (HEK293 [4]): 4.86 µM (active)
EC50 [5]: 11.9 µM (active)
EC50 [25]: > 79.4 µM (inactive)
EC50 (HEK293 [6]): 5.08 µM (active)
IC50 (HEK293 [7]): > 20 µM (inactive)
IC50 (HEK293 [8]): 5.25 µM (inactive)
EC50 [26]: 85.1 µM (not active)
IC50 (HEK293 [9]): 9.45 µM (active)

Nc1cc(=O)nc(SCC(=O)N2CCN(c3ccccc3)CC2)n1-c1ccc(F)cc1
EC50 [2]: 6.68 µM (active)

Nc1ccc2c(c1)C1C=CCC1C(c1ccccc1)N2 (configuration not stated)
IC50 (SUMO E1/E2): > 100 µM (inactive)
